Results reported in US20260219277A1, “NOVEL FLUORESCENT COMPOUND, AND COMPOSITION FOR DETECTING GINGIPAIN, COMPOSITION FOR DIAGNOSING PORPHYROMONAS GINGIVALIS INFECTION, OR ANTIBACTERIAL COMPOSITION AGAINST PORPHYROMONAS GINGIVALIS USING SAME” (priority 2023, published 2026).

Legend:
[1] = system: P. gingivalis conditioned medium (P.g. C.M.); set-up: species or system Porphyromonas gingivalis; details: for increase in fluorescence in the P. gingivalis conditioned medium (P.g. C.M.): compared to the basic TSB media
Description: (§1) Specifically, P. gingivalis is known to secrete gingipain (Kgp, Rgp) and outer membrane vesicles (OMVs) (FIG. 1A). Causative bacteria of periodontitis, i.e., P. gingivalis, F. nucleatum, and A. actinomycetecomitans, were observed using a scanning electron microscope (SEM) (FIG. 1B). Afterward, the conditioned media (C.M.) were isolated (FIG. 1C).
(§2) Therefore, the present inventors screened 24 types of thiol-reactive fluorescent compound libraries using the conditioned media. Here, four types of thiol-reactive MitoTrackers were used as control materials.
(§3) After culturing living P. gingivalis, F. nucleatum, and A. actinomycetecomitans with the fluorescent compound DTC630, and MitoTracker™ Red, cell-specific fluorescence reactions were compared.

[2] = system: F. nucleatum conditioned medium (F.n. C.M.); experiment: Fluorescence reaction in F. nucleatum conditioned medium; details: compared to the basic TSB media
Description: as §1, §2, §3

[3] = system: A. actinomycetecomitans conditioned medium (A.a C.M.); experiment: Fluorescence reaction in A. actinomycetecomitans conditioned medium; details: compared to the basic TSB media
Description: as §1, §2, §3

Kgp = experiment: Fluorescence spectrum after culture with Kgp; format: binding, P. gingivalis; details: 10 μM, λex=425 nm; for detection of Kgp (fluorescence compared to PBS), in words: λem=450-700 nm
Method: (§4) Specifically, after the gingipains (Kgp and Rgp) secreted from P. gingivalis, calpain, which is a cysteine protease, and trypsin, which is a serine protease, were cultured with fluorescent compound DTC630 (10 μM), a fluorescence spectrum was measured (λex=425 nm, λem=450-700 nm).
(§5) In addition, the degree of fluorescence reaction of fluorescent compound DTC630 (1, 3, 10, 30, and 100 μM) was measured at each concentration for Kgp, Rgp, calpain, and trypsin (final concentration: 0.3 mg/mL).

Rgp = Rgp (Porphyromonas gingivalis, UniProt P28784); experiment: Fluorescence spectrum after culture with Rgp; format: binding, P. gingivalis; details: 10 μM, λex=425 nm; for detection of Rgp (fluorescence compared to PBS), in words: λem=450-700 nm
Method: as §4, §5

calpain = experiment: Fluorescence spectrum after culture with calpain; format: binding, human; details: 10 μM, λex=425 nm; for detection of calpain (fluorescence compared to PBS), in words: λem=450-700 nm
Method: as §4, §5

trypsin = experiment: Fluorescence spectrum after culture with trypsin; format: binding, human; details: 10 μM, λex=425 nm; for detection of trypsin (fluorescence compared to PBS), in words: λem=450-700 nm
Method: as §4, §5

Sequence of Rgp (P28784 228-991): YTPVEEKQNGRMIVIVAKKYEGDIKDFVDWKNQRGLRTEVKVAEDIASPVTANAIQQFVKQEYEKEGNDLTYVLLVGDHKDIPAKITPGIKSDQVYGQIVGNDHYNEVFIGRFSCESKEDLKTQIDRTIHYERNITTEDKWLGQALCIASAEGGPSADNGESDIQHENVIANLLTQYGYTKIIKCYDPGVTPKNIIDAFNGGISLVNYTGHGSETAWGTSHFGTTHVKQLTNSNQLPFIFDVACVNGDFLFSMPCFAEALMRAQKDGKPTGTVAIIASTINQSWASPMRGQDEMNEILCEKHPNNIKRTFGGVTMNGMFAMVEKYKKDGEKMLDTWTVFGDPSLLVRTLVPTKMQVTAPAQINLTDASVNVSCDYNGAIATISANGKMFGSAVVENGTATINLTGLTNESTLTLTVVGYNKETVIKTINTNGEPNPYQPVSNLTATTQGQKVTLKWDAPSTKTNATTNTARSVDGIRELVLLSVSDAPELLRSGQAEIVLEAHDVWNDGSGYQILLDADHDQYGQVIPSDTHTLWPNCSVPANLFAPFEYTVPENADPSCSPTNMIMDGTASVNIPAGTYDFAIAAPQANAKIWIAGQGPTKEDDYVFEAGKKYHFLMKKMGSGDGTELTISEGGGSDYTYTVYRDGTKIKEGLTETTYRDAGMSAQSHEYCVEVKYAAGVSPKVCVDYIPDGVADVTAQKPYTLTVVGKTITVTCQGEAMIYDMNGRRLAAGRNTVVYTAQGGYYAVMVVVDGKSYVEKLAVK

Structure (SMILES) | increase in fluorescence in the P. gingivalis conditioned medium (P.g. C.M.) [1] [fold] | increase in fluorescence in the F. nucleatum conditioned medium (F.n. C.M.) [2] [fold] | increase in fluorescence in the A. actinomycetecomitans conditioned medium (A.a C.M.) [3] [fold] | selectivity of fluorescence reaction for P. gingivalis conditioned medium (library screen heatmap) ([1]; fluorescence magnification for TSB medium, screen of 24 thiol-reactive fluorescent compounds) | fluorescence increase for Kgp compared to PBS (Kgp) [fold] | detection of Kgp (fluorescence compared to PBS), in words (Kgp) | detection of Rgp (fluorescence compared to PBS), in words (Rgp) | detection of calpain (fluorescence compared to PBS), in words (calpain) | detection of trypsin (fluorescence compared to PBS), in words (trypsin) | fluorescence increase for Rgp compared to PBS (Rgp) [fold] | fluorescence increase for calpain compared to PBS (calpain) [fold] | fluorescence increase for trypsin compared to PBS (trypsin) [fold]
CN(C)c1ccc(-c2ccc(/C=C(\C#N)c3nnn[nH]3)cc2)cc1 [DTC630, (E)-3-(4′-(dimethylamino)-[1,1′-biphenyl]-4-yl)-2-(1H-tetrazol-5-yl) acrylonitrile] | 6.2±0.2 | 1.6±0.1 | 1.5±0.1 | – | – | – | – | – | – | – | – | –
CN(C)c1ccc(-c2ccc(C=C(C#N)C#N)cc2)cc1 [DTC2352, 2-((4′-(dimethylamino)-[1,1′-biphenyl]-4-yl)methylene)malononitrile] | – | – | – | does not exhibit a P. gingivalis-selective fluorescence reaction | 3±0 | no increase in fluorescence | no increase in fluorescence | no increase in fluorescence | no increase in fluorescence | – | – | –
ClCc1ccc(C2=c3cc4c5c(c3Oc3c2cc2c6c3CCCN6CCC2)CCC[N+]=5CCC4)cc1.[Cl-] [MitoTracker™ Red] | 5.6±0.6 | 3.2±0.1 | 4.5±0.1 | – | 145±5 | increase in fluorescence | increase in fluorescence | increase in fluorescence | increase in fluorescence | 126±6 | 163±1 | 93±9
